Consider 10 compounds from article PMC3440242 (Peptides, 2012).

Data set [1] relates to G-protein nucleotide sites (Gi3 α subunit). Format: cell-based.
Data set [2] has as its target hY2-CHO receptor. The settings on record: read-out: Scatchard affinity / Kdiss, ref [37]; cited from earlier work.
The test system of data set [3] is hY2-CHO receptor. As to the kind of experiment: Depletion of hY2-CHO surface receptors by agonists. It is filed as cell-based, human. The settings on record: exponential + linear model, four experiments.
Data set [4] addresses T1, Y2 receptor (Homo sapiens, UniProt P49146).
T1 sequence (P49146 1-381): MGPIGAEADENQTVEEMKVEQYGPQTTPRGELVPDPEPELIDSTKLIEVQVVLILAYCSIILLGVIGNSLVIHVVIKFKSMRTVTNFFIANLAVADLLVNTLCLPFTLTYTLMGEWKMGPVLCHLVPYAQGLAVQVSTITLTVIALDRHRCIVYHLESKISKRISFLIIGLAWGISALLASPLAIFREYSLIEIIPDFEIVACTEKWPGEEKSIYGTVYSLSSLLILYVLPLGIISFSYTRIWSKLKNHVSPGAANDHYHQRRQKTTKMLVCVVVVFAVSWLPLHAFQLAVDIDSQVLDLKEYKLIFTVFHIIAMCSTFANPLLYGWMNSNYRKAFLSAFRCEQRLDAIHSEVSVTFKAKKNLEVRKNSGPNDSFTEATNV
The settings on record: read-out: ic50, [^125I] hPYY(3-36) binding to particulate Y2 receptor; cited from earlier work.

For data set [5], the target named is T1, Y2 receptor. As to the kind of experiment: Particulate Y2 agonist binding.
Data set [6] has as its system CHO cells. As to the kind of experiment: Permeabilization of CHO cells. The settings on record: 20 min at 37 °C.
Data set [7] relates to CHO cells.
Data set [8] deals with G-protein nucleotide sites (Gi α subunits) (Cricetulus griseus, UniProt Q60397). As to the kind of experiment: ^35S-GTPγS binding to Y2-CHO particulates. The settings on record: Y2-CHO cells. A general note: Binding of GTPγS marks nucleotide exchange on a G protein.
G-protein nucleotide sites (Gi α subunits), sequence (Q60397 2-354): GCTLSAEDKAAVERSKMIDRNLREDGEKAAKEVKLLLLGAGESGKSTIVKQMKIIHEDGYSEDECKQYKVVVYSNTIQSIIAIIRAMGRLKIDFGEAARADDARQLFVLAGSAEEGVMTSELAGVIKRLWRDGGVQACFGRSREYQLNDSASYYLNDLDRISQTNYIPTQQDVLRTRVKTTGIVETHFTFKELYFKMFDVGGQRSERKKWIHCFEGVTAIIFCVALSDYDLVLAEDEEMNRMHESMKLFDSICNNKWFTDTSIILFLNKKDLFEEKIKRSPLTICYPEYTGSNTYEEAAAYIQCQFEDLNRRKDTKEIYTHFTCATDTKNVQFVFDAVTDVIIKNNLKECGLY
Another data set has as its system Y4 receptor. As to the kind of experiment: Agonist binding to surface Y4 receptor in CHO monolayers after unmasking agent. Format: cell-based. The settings on record: 30 μM digitonin pretreatment, 20 min at 37 °C; 50 pM [^125I] hPP.
For a further data set, the system named is guinea pig Y2 receptor. As to the kind of experiment: Unmasking of surface guinea pig Y2 receptor in adherent CHO cells. The settings on record: 30 μM agent, 20 min at 37 °C, 50 pM [^125I] hPYY(3-36), at least three experiments. It is filed as cell-based.
In the next data set the test system is Y1 receptor. As to the kind of experiment: Agonist binding to surface Y1 receptor in CHO monolayers after unmasking agent. Format: cell-based. The settings on record: 30 μM digitonin pretreatment, 20 min at 37 °C; 50 pM [^125I] hNPY.
For data set [9] the following is noted: stated without reference; cited from earlier work.
Data set [10] relates to CHO cells. This is another data set of the same source.
Data set [11] deals with CHO cells. As to the kind of experiment: Cell detachment, protein loss and lysis of CHO cells.

Like-named read-outs stand apart in the source and are kept apart here.

For the compound “pertussis toxin: toxin used at 1 ng/ml for 21 h”, the “^35S-GTPγS binding to Y2-CHO cells (in words)” value in data set [1] is reported as “highly sensitive to cell pretreatment with pertussis toxin”.
As for “LRHYLNLLTRORY [AcLeu, human neuropeptide Y(24-36), acetyl-Leu(28, 31)]”, the Kd on hY2-CHO receptor [2] is 0.0005 µM. Moreover, in the data set on hY2-CHO receptor [3] (+ 30 μM PAO), the “% total depletion in component 1” value is 15.6 ± 3.9%, the “K1 (exponential component)” value was 3.0 ± 0.75 nM and the “K2 (linear component)” value turned out to be 243 ± 15 nM. Further, in the data set on hY2-CHO receptor [3] (without PAO), the “% total depletion in component 1” value came to 32.8 ± 8.5 %, the “K1 (exponential component)” value was determined as 6.2 ± 1.6 nM and the “K2 (linear component)” value came out at 153 ± 17 nM.
With `C[N+](C)(C)CCSS(C)(=O)=O` [MTSET, 2-[trimethylammonium)ethyl] methanethiosulfonate], the IC50 on Y2 receptor [4] was 264 ± 27 µM.
For the compound `CCCCC[C@@H](O)[C@H]1C(=O)O[C@H](C)[C@@H](O)/C=C/C=C/C=C/C=C/C=C(\C)[C@@H](O)C[C@H](O)C[C@H](O)C[C@H](O)C[C@H](O)C[C@H](O)C[C@@H]1O` [filipin III], on Y2 receptor [5], the “effect on particulate Y2 agonist binding (in words)” value was “no loss of either particulate or surface Y2 sites”. Moreover, at Y2 receptor [5] (read-out: ic50, agonist binding to Y2-CHO particulates), the IC50 is about 100 µM. In the data set with CHO cells [6] (filipin III), the “concentration range inducing permeabilization” value is 0.6 to 3 µM. For the same compound, in the data set with CHO cells [7], the “concentration at which cell lysis starts” value is given as “about 10 μM”, the “concentration at/above which cell detachment is found” value is “above 15 μM” and the “loss of mainly cytosolic protein” value is reported as “about 40%”. For the same compound, the “^35S-GTPγS binding to Y2-CHO cells (in words)” value in [1] is recorded as “highly variable”.
As for `Nc1nc2c(ncn2[C@@H]2O[C@H](COP(=O)(O)OP(=O)(O)OP(O)(O)=S)[C@@H](O)[C@H]2O)c(=O)[nH]1` [^35S-GTPγS, guanosine 5′-O-(3-thiotriphosphate], the “total particulate nucleotide sites” value in [8] is recorded as 32 ± 0.7 fmol/100,000 cells.
In the case of `C[C@@H]1CC[C@@]2(OC1)O[C@H]1[C@@H](O)[C@H]3[C@@H]4CC[C@H]5C[C@@H](O[C@@H]6O[C@H](CO)[C@H](O[C@@H]7O[C@H](CO)[C@@H](O)[C@H](O[C@@H]8OC[C@@H](O)[C@H](O)[C@H]8O)[C@H]7O[C@@H]7O[C@H](CO)[C@H](O)[C@H](O[C@@H]8O[C@H](CO)[C@@H](O)[C@H](O)[C@H]8O)[C@H]7O)[C@H](O)[C@H]6O)[C@H](O)C[C@]5(C)[C@H]4CC[C@]3(C)[C@H]1[C@@H]2C` [digitonin], in the data set with Y4 receptor, the “effect on Y4-CHO surface sites” value is “did not increase the Y1-CHO or Y4-CHO surface sites”. Also, in the data set with guinea pig Y2 receptor, the “increase of labeling of adherent confluent Y2-CHO cells” value was “about 4 fold”. For the same compound, the “concentration at which permeabilization reached a plateau” value in the data set on CHO cells [6] (judged by labeling by ^35S-GTPγS) stood at 20 µM. Besides, the “effect on Y1-CHO surface sites” value in the data set with Y1 receptor is “did not increase the Y1-CHO or Y4-CHO surface sites”. For the same compound, in data set [9], the critical micellar concentration was at least 100 µM. In the data set on CHO cells [7], the “concentration above which CHO cells and particulates are lysed” value is listed as “above 1 mM”; the “concentration above which protein leakage is observed” value is “above 30 μM”; the “concentration at/above which cell detachment is found” value is listed as “about 50 μM”. For the same compound, in data set [1], the “digitonin range in which ^35S-GTPγS binding saturates” value was 3 to 30 µM and the “increase of ^35S-GTPγS binding to intact CHO cells” value is listed as 10-15 fold.
As to “polyoxyethylene(20)sorbitan monooleate [Tween 80]”, the “permeabilization of CHO cells (in words)” value in the data set with CHO cells [10] is reported as “did not permeabilize CHO cells at 100 μM”.
Turning to `C[C@H](CCC(=O)NCCC[N+](C)(C)CCCS(=O)(=O)[O-])[C@H]1CC[C@H]2[C@@H]3[C@H](O)C[C@@H]4C[C@H](O)CC[C@]4(C)[C@H]3C[C@H](O)[C@]12C` [CHAPS, 3-[(3-Cholamidopropyl)dimethylammonio]-1-propanesulfonate], the “concentration above which CHO cells and particulates are lysed” value in the data set with CHO cells [11] is listed as “above 1 mM”.
As for `C[C@H](CCC(=O)O)[C@H]1CC[C@H]2[C@@H]3[C@H](O)C[C@@H]4C[C@H](O)CC[C@]4(C)[C@H]3C[C@H](O)[C@]12C` [cholate], in the data set on CHO cells [10], the “permeabilization of CHO cells (in words)” value is given as “did not permeabilize CHO cells at 100 μM”. In addition, the “concentration above which CHO cells and particulates are lysed” value in the data set with CHO cells [7] is recorded as “above 1 mM”.
With `CCN1C(=O)C=CC1=O` [NEM, N-Ethylmaleimide], the IC50 on Y2 receptor [4] was 146 ± 14 µM.

For orientation: IC50 means the concentration needed to halve the response being measured.
